Values of other authors as cited in US20100055181A1, “CONTROLLED RELEASE DOSAGE FORMS OF ZOLPIDEM” (LUPIN LIMITED, priority 2006, published 2010).

Details: hypnotic action, oral, conventional forms

## Cc1ccc(-c2nc3ccc(C)cn3c2CC(=O)N(C)C)cc1 [zolpidem]
  duration of action: up to 6 hours
